Like-named read-outs stand apart in the source and are kept apart here.
Assays:
RARγ [1] = target: T1, RARγ (Homo sapiens, UniProt P13631); assay: Transactivation assay, luciferase reporter, full length RARγ; type: cell-based
T1 sequence (P13631 1-454): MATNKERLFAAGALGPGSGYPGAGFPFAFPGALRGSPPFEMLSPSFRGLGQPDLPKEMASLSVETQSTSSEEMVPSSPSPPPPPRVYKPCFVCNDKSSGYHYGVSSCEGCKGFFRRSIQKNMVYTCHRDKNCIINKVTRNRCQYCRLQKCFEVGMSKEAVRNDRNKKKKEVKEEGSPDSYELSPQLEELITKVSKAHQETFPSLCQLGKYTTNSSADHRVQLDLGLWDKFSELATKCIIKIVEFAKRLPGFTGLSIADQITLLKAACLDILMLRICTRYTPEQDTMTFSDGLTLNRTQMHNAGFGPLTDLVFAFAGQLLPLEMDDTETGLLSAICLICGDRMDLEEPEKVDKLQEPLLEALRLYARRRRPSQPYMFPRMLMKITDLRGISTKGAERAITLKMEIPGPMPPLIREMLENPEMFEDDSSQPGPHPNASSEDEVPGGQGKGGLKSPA
Procedure: (§1) Retinoic acid receptor transactivation activity and binding efficiencies were determined essentially as described in U.S. Pat. Nos.: 5,298,429 and 5,071,773, incorporated by reference herein. Transactivation assays employed expression plasmids encoding the full length receptors RARα, RARβ, RARγ, RXRα, RXRβ, and RXRγ. Reporter plasmids contained the herpes virus thymidine kinase promoter and the appropriate retinoid acid receptor response element (RAREs) or retinoid X receptor response element (RXREs) positioned upstream of an open coding region encoding firefly luciferase.
(§2) These compounds are designated AGN 192192, AGN 192337, AGN 192294, AGN 192295, and AGN 192452, respectively. EC50 designates the concentration of the tested compound which was able to give a 50% maximal transcription of the reporter gene; KD50 indicates the concentration of the tested compound at which 50% of the compound molecules are bound to the receptor. NT indicates those points that were not tested in the particular experiment.

RARα [2] = target: T2, RARα (Homo sapiens, UniProt P10276); assay: Competition binding assay, radiolabeled all-trans-retinoic acid, RARα
T2 sequence (P10276 1-462): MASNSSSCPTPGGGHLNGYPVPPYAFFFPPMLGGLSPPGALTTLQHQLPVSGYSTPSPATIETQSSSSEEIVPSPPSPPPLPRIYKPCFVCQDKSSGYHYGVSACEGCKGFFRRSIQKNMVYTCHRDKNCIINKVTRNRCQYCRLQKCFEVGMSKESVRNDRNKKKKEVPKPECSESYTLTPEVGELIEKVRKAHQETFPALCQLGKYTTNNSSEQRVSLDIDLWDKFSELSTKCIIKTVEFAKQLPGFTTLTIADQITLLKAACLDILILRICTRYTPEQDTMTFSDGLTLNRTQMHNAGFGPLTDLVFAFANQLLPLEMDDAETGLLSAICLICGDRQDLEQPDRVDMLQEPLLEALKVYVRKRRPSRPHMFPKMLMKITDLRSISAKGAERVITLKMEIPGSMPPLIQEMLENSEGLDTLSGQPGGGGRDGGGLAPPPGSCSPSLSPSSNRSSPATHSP
Procedure: (§3) Binding assays were performed using a classic competition assay format in which cloned receptor RAR mand RXR molecules were first loaded with either radiolabeled all-trans-retinoic acid (RAR) or radiolabeled 9-cis retinoic acid (RXR), and then the amount of radioactivity liberated with increasing concentration of test compound was measured.
as §2

RARβ [3] = target: T3, RARβ (Homo sapiens, UniProt P10826); assay: Transactivation assay, luciferase reporter, full length RARβ; type: cell-based
T3 construct: expressed in transfected cells
T3 sequence (P10826 1-455): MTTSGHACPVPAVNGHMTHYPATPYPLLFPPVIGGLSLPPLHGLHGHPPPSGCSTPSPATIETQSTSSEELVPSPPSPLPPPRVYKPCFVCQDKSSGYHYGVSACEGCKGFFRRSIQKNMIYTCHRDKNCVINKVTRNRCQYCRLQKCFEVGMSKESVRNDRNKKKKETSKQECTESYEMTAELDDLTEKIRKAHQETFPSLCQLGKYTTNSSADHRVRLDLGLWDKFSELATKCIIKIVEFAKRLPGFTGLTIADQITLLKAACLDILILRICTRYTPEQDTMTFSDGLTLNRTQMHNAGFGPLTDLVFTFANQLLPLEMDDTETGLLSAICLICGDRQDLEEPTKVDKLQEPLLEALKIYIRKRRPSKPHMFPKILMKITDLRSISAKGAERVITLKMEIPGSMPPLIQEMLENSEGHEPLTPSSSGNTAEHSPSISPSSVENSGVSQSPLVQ
Procedure: as §1, §2

RARα [4] = target: T2, RARα; assay: Transactivation assay, luciferase reporter, full length RARα; type: cell-based; details: concentration giving 50% maximal transcription of the reporter gene; read-out: Trans (EC50) RARα
Procedure: as §1, §2

RARγ [5] = target: T1, RARγ; assay: Competition binding assay, radiolabeled all-trans-retinoic acid, RARγ
Procedure: as §3, §2

RARβ [6] = target: T3, RARβ; assay: Competition binding assay, radiolabeled all-trans-retinoic acid, RARβ
Procedure: as §3, §2

RXRα [7] = target: T4, RXRα (Homo sapiens, UniProt P19793); assay: Transactivation assay, luciferase reporter, full length RXRα; type: cell-based; details: concentration giving 50% maximal transcription of the reporter gene; read-out: Trans (EC50) RXRα
T4 construct: encoding the full length receptors RARα, RARβ, RARγ, RXRα, RXRβ, and RXRγ; expressed in transfected cells
T4 sequence (P19793 1-462): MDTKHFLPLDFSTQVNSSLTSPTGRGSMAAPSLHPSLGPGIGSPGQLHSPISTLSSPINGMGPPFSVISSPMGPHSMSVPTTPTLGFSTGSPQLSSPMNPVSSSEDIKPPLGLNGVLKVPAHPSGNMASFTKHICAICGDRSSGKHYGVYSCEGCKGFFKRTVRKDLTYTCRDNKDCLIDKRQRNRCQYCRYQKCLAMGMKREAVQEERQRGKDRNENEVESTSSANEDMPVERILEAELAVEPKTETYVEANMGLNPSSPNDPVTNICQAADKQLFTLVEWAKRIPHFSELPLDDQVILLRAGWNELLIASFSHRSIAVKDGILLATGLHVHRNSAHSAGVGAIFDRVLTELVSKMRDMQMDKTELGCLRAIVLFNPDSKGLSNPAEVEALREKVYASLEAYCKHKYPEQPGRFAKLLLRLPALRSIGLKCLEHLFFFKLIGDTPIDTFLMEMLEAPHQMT
Procedure: as §1, §2

RXRγ [8] = target: T5, RXRγ (Homo sapiens, UniProt P48443); assay: Competition binding assay, radiolabeled 9-cis retinoic acid, RXRγ; details: competition with radiolabeled 9-cis retinoic acid; read-out: Bind (KD50) RXRγ
T5 construct: encoding the full length receptors RARα, RARβ, RARγ, RXRα, RXRβ, and RXRγ; expressed in transfected cells
T5 sequence (P48443 1-463): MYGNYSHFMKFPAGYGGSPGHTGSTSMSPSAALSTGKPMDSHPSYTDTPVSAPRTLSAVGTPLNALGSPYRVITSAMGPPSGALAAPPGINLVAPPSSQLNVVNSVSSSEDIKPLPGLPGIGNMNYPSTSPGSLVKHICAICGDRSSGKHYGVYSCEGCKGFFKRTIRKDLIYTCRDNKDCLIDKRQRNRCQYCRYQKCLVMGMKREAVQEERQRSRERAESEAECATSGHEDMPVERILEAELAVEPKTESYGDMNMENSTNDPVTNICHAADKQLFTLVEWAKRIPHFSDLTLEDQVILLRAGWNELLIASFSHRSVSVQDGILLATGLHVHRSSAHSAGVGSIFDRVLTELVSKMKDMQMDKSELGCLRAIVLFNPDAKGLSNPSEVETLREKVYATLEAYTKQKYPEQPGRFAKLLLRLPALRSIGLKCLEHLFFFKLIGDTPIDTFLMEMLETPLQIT
Procedure: as §3, §2

RXRβ [9] = target: T6, RXRβ (Homo sapiens, UniProt P28702); assay: Competition binding assay, radiolabeled 9-cis retinoic acid, RXRβ; details: competition with radiolabeled 9-cis retinoic acid; read-out: Bind (KD50) RXRβ
T6 construct: encoding the full length receptors RARα, RARβ, RARγ, RXRα, RXRβ, and RXRγ; expressed in transfected cells
T6 sequence (P28702 1-533): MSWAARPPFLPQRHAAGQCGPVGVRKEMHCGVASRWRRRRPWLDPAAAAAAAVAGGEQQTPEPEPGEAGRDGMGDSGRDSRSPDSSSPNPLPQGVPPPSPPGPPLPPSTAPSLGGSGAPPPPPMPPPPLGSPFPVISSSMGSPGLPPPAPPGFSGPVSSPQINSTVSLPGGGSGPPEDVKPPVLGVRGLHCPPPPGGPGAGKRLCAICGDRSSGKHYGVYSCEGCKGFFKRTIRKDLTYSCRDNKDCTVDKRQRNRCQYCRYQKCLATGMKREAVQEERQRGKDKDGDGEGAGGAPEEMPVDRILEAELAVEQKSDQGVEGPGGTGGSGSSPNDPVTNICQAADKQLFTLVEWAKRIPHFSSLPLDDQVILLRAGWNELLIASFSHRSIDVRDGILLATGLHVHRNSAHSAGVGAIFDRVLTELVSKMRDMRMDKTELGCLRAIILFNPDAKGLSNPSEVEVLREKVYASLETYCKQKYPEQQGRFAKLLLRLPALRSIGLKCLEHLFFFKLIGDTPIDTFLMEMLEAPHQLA
Procedure: as §3, §2

RXRα [10] = target: T4, RXRα; assay: Competition binding assay, radiolabeled 9-cis retinoic acid, RXRα; details: competition with radiolabeled 9-cis retinoic acid; read-out: Bind (KD50) RXRα
Procedure: as §3, §2

RXRβ [11] = target: T6, RXRβ; assay: Transactivation assay, luciferase reporter, full length RXRβ; type: cell-based; details: concentration giving 50% maximal transcription of the reporter gene; read-out: Trans (EC50) RXRβ
Procedure: as §1, §2

RXRγ [12] = target: T5, RXRγ; assay: Transactivation assay, luciferase reporter, full length RXRγ; type: cell-based; details: concentration giving 50% maximal transcription of the reporter gene; read-out: Trans (EC50) RXRγ
Procedure: as §1, §2

[13] = competition with radiolabeled all-trans-retinoic acid, read-out: Bind (KD50) RARα
[14] = concentration giving 50% maximal transcription of the reporter gene, read-out: Trans (EC50) RARβ
[15] = competition with radiolabeled all-trans-retinoic acid, read-out: Bind (KD50) RARγ
[16] = competition with radiolabeled all-trans-retinoic acid, read-out: Bind (KD50) RARβ

SMILES | Kd (RARα [2]; [13]) [nM] | EC50 (RARβ [3]; [14]) [nM] | EC50 (RARα [4]) [nM] | Kd (RARγ [5]; [15]) [nM] | Kd (RARβ [6]; [16]) [nM] | EC50 (RXRα [7]) [nM] | EC50 (RXRγ [12]) [nM] | further results
CC1(C)CCC(C)(C)c2cc(/C(=C/c3ccc(C(=O)O)s3)[Si](C)(C)C)ccc21 [Compound 192295] | 1300 | 290 | 350 | 1550 | 499 | – | – | EC50 (RARγ [1]; concentration giving 50% maximal transcription of the reporter gene, read-out: Trans (EC50) RARγ): 330 nM
CC1(C)CCC(C)(C)c2cc(/C(=C/c3ccc(C(=O)C(=O)O)cc3)[Si](C)(C)C)ccc21 [Compound 192337] | – | – | – | – | – | – | – | EC50 (RARγ [1]): 1500 nM; Kd (RARα [2]): 2280 nM; EC50 (RARβ [3]): 260 nM; Kd (RARγ [5]): 5840 nM; Kd (RARβ [6]): 2430 nM
Cc1cc2c(cc1/C(=C/c1ccc(C(=O)C(=O)O)cc1)[Si](C)(C)C)C(C)(C)CCC2(C)C [Compound 192192] | 2640 | 88 | 550 | 2020 | 699 | 990 | 960 | Kd (RXRγ [8]): > 1000 nM; Kd (RXRβ [9]): > 1000 nM; Kd (RXRα [10]): > 1000 nM; EC50 (RXRβ [11]): 780 nM
Cc1cc2c(cc1/C(=C/c1ccc(C(=O)O)s1)[Si](C)(C)C)C(C)(C)CCC2(C)C [Compound 192294] | – | – | – | 8940 | 8000 | – | – | –
CC1(C)CC(C)(C)c2cc(/C(=C/c3ccc(C(=O)C(=O)O)cc3)[Si](C)(C)C)ccc2O1 [Compound 192452] | – | – | – | 4520 | 3300 | 3100 | 2900 | –

Source: patent US6452032B1, “Organosilyl compounds having nuclear hormone receptor modulating activity” (Allergan Sales, LLC, priority 1999, dated 2002)
